Where a name gives a salt, the structure may show the parent alone. Read-outs that look alike come from different tables or passages of the source.
Assays:
[1] = test system: IL-2 secretion by human effector memory T cells (TEM); assay: Effector memory T cells IL-2 release assay; assay type: cell-based; details: T-cell, 24 h
Method: Test compound-mediated inhibition of NFκB signalling in T cells was assessed by quantification of the IL-2 secretion by human effector memory T cells (TEM) upon treatment and stimulation. Human TEM cells were isolated from buffy coats of healthy donors obtained from the French blood bank. First, peripheral blood mononuclear cells (PBMC) were purified from buffy coats diluted 1:1 with DPBS (Gibco, cat #14190-094) by Pancoll (PAN BIOTECH, cat #P04-60500) density gradient centrifugation at 400×g for 20 minutes. TEM cells were further enriched by negative immuno-magnetic cell sorting using a human CD4+ Effector Memory T Cell Isolation Kit (Miltenyi, cat #130-094-125) according to the manufacturer's instructions. Aliquots of 3×10E6 purified TEM cells were kept frozen in Cryo-SFM medium (PromoCell, cat #C-29912) in gas phase nitrogen until used. Cell purity was verified by flow cytometry analysis of 200 000 PFA-fixed cells previously labelled with monoclonal antibodies anti-CD4-PerCP-Cy5.5 (BD Pharmigen, cat #332772), anti-CD8-V500 (BD Biosciences, cat #561617), anti-CD14-Pacific Blue (Biolegend, cat #325616), anti-CD45 RA-FITC (Biolegend, cat #304106) and anti-CCR7-APC (in CD4+ Effector Memory T Cell Isolation Kit, Miltenyi, cat #130-094-125).
TEM cells were resuspended in complete RPMI medium composed of: RPMI 1640 (Gibco, cat #31870-025), 10% heat inactivated fetal bovine serum (Sigma, cat #F7524), 2 mM GlutaMAX (Gibco, cat #35050-038), 1 mM sodium pyruvate 100× (Gibco, cat #11360-039), 1% MEM non-essential amino acids solution (Gibco, cat #11140-035) and 100 U/mL penicillin, 100 µg/mL streptomycin (Sigma-Aldrich, cat #11074440001). 5,000 cells per well were plated onto flat clear bottom 384 well plates (Corning, cat #3770). 5,000 Dynabeads Human T-Activator CD3/CD28 (Gibco, cat #11132D) were added to each well for cell stimulation. Finally, 10 doses of test compound, originally prepared in DMSO by serial semi-log step dilution, were also added to cells in triplicate wells. Final DMSO concentration in wells was 0.1% in a total volume of 100 µL complete medium. Plates were incubated for 24 h at 37° C. in 5% CO2 atmosphere. After incubation, cell suspensions were centrifuged at 400×g and culture supernatants were recovered and stored at −80° C. Cell viability was assessed by flow cytometry after staining the cells with Fixable Viability Dye eFluor 780 (Invitrogen, cat #65-0865-14). IL-2 levels were determined in cell supernatants using an HTRF human IL-2 detection kit (Cisbio, cat #62HIL02PEH). IL-2 data at the different compound doses were fitted to a 4-parameter logistic curve to determine IC50 values, corresponding to the compound concentration leading to 50% reduction of the maximal IL-2 levels observed in each experiment. Viability data were analysed similarly to exclude cytotoxicity as a cause of IL-2 decrease (see Table 1).

[2] = molecular target: Recombinant human PKC-theta (His-tagged 362-706) (Homo sapiens (Human), UniProt Q04759); assay: PKC-theta inhibition assay (HTRF KinEASE kit); assay type: biochemical; details: ATP 6.5 μM
Method: (§1) PKC-theta and PKC-delta biochemical activities were measured using the PKC-theta HTRF KinEASEkit kit, according to manufacturer's instructions (Cisbio, catalogue number 61ST1PEJ). Briefly, the kinase buffer component of the kit was supplemented with 10 mM MgCl2, 1 mM DTT and 0.1% Tween 20. For the PKC-theta assay, STK substrate and ATP were added to provide a final assay concentration of 525 nM and 6.5 μM, respectively. For the PKC-delta assay, STK substrate and ATP were added to provide a final assay concentration of 243 nM and 5.7 μM, respectively. The streptavidin_XL665 and STK antibody-cryptate detection reagents were mixed according to the manufacturer's instructions. Test compounds were diluted in DMSO in a series of 10 semi-log step doses; 10 nL of each compound dose were dispensed in 384 well plates. Recombinant human PKC-theta (His-tagged 362-706) or PKC-delta (His-tagged 345-676) was diluted into kinase buffer to provide a final assay concentration of 10 ng/ml and added to the test compound for 30 minutes on ice. The reaction was started by addition of the substrate and ATP and incubated at 25° C. for 30 minutes or 20 minutes for the PKC-theta and PKC-delta assays, respectively. The detection reagents were added, and the plate was incubated in the dark for 2 hours. Fluorescence was measured on an Envision 2103 plate reader with optical setup for […] in the HTRF mode. The ratio of acceptor and donor emission signals was calculated for each well. Percent inhibition values were calculated from the HTRF ratios at different doses and fitted to a 4-parameter logistic curve to determine IC50 values (see Table 1).

[3] = molecular target: Recombinant human PKC-delta (His-tagged 345-676) (Homo sapiens (Human), UniProt Q05655); assay: PKC-delta inhibition assay (HTRF KinEASE kit), PKC-theta/PKC-delta selectivity; assay type: biochemical; details: ratio; for PKC-theta/PKC-delta selectivity: PKC-theta over PKC-delta, HTRF assays; for PKC-theta/PKC-delta selectivity (binned): binned A to G
Method: as §1

[4] = Homo sapiens, read-out: PKC-theta IL2 pIC50 (binned) (converted)
[5] = Homo sapiens, read-out: PKC-theta IL2 pIC50 (converted)
[6] = binned A to H, read-out: PKC-theta HTRF pIC50 (binned) (converted)
[7] = human CD4+ TEM cells, CD3/CD28 bead stimulation, binned A to G, read-out: PKC-theta IL2 pIC50 (binned) (converted)
[8] = human CD4+ TEM cells, CD3/CD28 bead stimulation, read-out: PKC-theta IL2 pIC50 (converted)
[9] = read-out: PKC-theta HTRF pIC50 (converted)

Chain of Recombinant human PKC-theta (His-tagged 362-706) (Q04759 362-706): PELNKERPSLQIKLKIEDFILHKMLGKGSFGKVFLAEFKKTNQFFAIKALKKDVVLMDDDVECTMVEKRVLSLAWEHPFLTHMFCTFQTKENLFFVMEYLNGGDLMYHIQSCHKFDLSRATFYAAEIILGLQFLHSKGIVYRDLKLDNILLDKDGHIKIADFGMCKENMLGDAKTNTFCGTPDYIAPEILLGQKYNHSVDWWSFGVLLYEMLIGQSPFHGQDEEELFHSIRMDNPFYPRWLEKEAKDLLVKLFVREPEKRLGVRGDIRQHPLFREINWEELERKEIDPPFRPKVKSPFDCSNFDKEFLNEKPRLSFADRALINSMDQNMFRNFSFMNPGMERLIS
Chain of Recombinant human PKC-delta (His-tagged 345-676) (Q05655 345-676): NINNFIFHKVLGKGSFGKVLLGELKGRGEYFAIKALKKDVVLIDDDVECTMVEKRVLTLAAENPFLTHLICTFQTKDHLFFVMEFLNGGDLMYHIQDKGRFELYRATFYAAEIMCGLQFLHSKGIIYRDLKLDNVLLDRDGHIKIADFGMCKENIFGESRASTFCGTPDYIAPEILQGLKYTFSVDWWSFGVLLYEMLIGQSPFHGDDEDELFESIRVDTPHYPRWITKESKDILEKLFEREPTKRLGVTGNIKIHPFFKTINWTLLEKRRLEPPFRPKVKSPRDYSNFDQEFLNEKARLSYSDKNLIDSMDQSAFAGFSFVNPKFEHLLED

| Compound | PKC-theta HTRF pIC50 [2] | IC50 [2, 6] | PKC-theta/PKC-delta selectivity [3] | PKC-theta/PKC-delta selectivity (binned) [3] | IC50 [1, 7] | IC50 [1, 8] | IC50 [2, 9] | IC50 [1, 4] | IC50 [1, 5] |
| --- | --- | --- | --- | --- | --- | --- | --- | --- | --- |
| O=c1[nH]c2nccc(-c3ccn(C4CCNCC4)c3)c2[nH]1 [Example 3, 7-[1-(4-piperidyl)pyrrol-3-yl]-1,3-dihydroimidazo[4,5-b]pyridin-2-one; Dihydrochloride] | 6.7 | 100 to 316 nM | 1 | F (F means a ratio of between 1 and 5) |  |  |  | > 1000 nM | 6310 nM |
| CC1(C)C(=O)Nc2nccc(-c3nn(C4(CO)CCNC4)c4ccccc34)c21 (stereo not drawn) [Example 23] | 9.3 | ≤ 1 nM | 11 | D (D means a ratio of between 10 and 20) | 10 to 31.6 nM | 31.6 nM |  |  |  |
| O=C1Nc2nccc(-c3nn(C4(CO)CCNC4)c4cc(F)ccc34)c2C12CCCC2 (stereo not drawn) [Example 55, 4-[6-fluoro-1-[3-(hydroxymethyl)pyrrolidin-3-yl]indazol-3-yl]spiro[1H-pyrrolo[2,3-b]pyridine-3,1′-cyclopentane]-2-one dihydrochloride] | 8.2 | 3.16 to 10 nM | 4 | F (F means a ratio of between 1 and 5) |  |  |  | 100 to 316 nM | 158 nM |
| C[C@@]1(O)C(=O)Nc2nccc(-c3nn(C4CCNCC4)c4ccccc34)c21 (single isomer, unassigned) [Example 27] |  | 31.6 to 100 nM | 5 | E (E means a ratio of between 5 and 10) | > 1000 nM | 1580 nM | 50.1 nM |  |  |
| CC1(C)C(=O)Nc2nccc(-c3ccn([C@H]4CC[C@H](N)CC4)n3)c21 [Example 14] | 8.5 | 3.16 to 10 nM | 3 | F (F means a ratio of between 1 and 5) | 31.6 to 100 nM | 50.1 nM |  |  |  |
| CC1(C)C(=O)Nc2nccc(-c3ccn(C4CCNCC4)n3)c21 [Example 8, 3,3-dimethyl-4-[1-(4-piperidyl)pyrazol-3-yl]-1H-pyrrolo[2,3-b]pyridin-2-one Dihydrochloride] | 8.1 | 3.16 to 10 nM | 5 | E (E means a ratio of between 5 and 10) |  |  |  | 100 to 316 nM | 126 nM |
| CC1C(=O)Nc2nccc(-c3ccn(C4CCNCC4)c3)c21 (stereo not drawn) [Example 5] | 7.1 | 31.6 to 100 nM | 1 | F (F means a ratio of between 1 and 5) | 100 to 316 nM | 126 nM |  |  |  |
| CC1(C)C(=O)Nc2nccc(-c3nn(C[C@@]4(C)COCCN4)c4ccccc34)c21 (single isomer, unassigned) [Example 31] | 8.9 | 1 to 3.16 nM | 22 | C (C means a ratio of between 20 and 30) | 31.6 to 100 nM | 39.8 nM |  |  |  |
| C[C@@]1(O)C(=O)Nc2nccc(-c3nn(C4(CC#N)CCC4)c4ccccc34)c21 (single isomer, unassigned) [Example 40] |  | ≤ 1 nM | 17 | D (D means a ratio of between 10 and 20) | 10 to 31.6 nM | 15.8 nM | 0.2 nM |  |  |

Continued, in another order:

| PKC-theta HTRF pIC50 [2] | IC50 [2, 6] | PKC-theta/PKC-delta selectivity [3] | PKC-theta/PKC-delta selectivity (binned) [3] | IC50 [1, 7] | IC50 [1, 8] | IC50 [2, 9] | Compound | IC50 [1, 4] | IC50 [1, 5] |
| --- | --- | --- | --- | --- | --- | --- | --- | --- | --- |
|  | 3.16 to 10 nM | 29 | C (C means a ratio of between 20 and 30) | 31.6 to 100 nM | 100 nM | 7.94 nM | CC[C@]1(C)C(=O)Nc2nccc(-c3nn([C@H]4CCNC[C@H]4F)c4ccc(F)cc34)c21 (single isomer, unassigned) [Example 100] |  |  |
|  | ≤ 1 nM | 9 | E (E means a ratio of between 5 and 10) | 10 to 31.6 nM | 20 nM | 0.794 nM | CO[C@@]1(C)C(=O)Nc2nccc(-c3nn(C4(CC#N)CCC4)c4ccccc34)c21 (single isomer, unassigned) [Example 80] |  |  |
| 8.6 | 1 to 3.16 nM | 22 | C (C means a ratio of between 20 and 30) | 31.6 to 100 nM | 79.4 nM |  | CC1(Cn2nc(-c3ccnc4c3C(C)(C)C(=O)N4)c3ccccc32)COCCN1 (stereo not drawn) [Example 54, 3,3-dimethyl-4-[1-[(3-methylmorpholin-3-yl)methyl]indazol-3-yl]-1H-pyrrolo[2,3-b]pyridin-2-one] |  |  |
| 7.5 | 31.6 to 100 nM | 14 | D (D means a ratio of between 10 and 20) | 100 to 316 nM | 251 nM |  | CC1(C)C(=O)Nc2nccc(-c3nn(CC4(F)CCCNC4)c4ccccc34)c21 (stereo not drawn) [Example 44] |  |  |
|  | ≤ 1 nM | 15 | D (D means a ratio of between 10 and 20) | 10 to 31.6 nM | 12.6 nM | 0.794 nM | CC[C@]1(C)C(=O)Nc2nccc(-c3nn([C@@H]4CCNC[C@@H]4F)c4ccccc34)c21 (single isomer, unassigned) [Example 106] |  |  |
| 7.9 | 10 to 31.6 nM | 20 | D (D means a ratio of between 10 and 20) | 100 to 316 nM | 200 nM |  | CC1(C)C(=O)Nc2nccc(-c3nn([C@H]4CCNC4)c4c(F)cccc34)c21 [Example 72] |  |  |
|  | 10 to 31.6 nM | 15 | D (D means a ratio of between 10 and 20) | 100 to 316 nM | 158 nM | 12.6 nM | CO[C@@]1(C)C(=O)Nc2nccc(-c3nn([C@@H]4CCNC[C@@H]4F)c4ccccc34)c21 (single isomer, unassigned) [Example 92] |  |  |
|  | 1 to 3.16 nM | 15 | D (D means a ratio of between 10 and 20) | 31.6 to 100 nM | 50.1 nM | 1.26 nM | CO[C@@]1(C)C(=O)Nc2nccc(-c3nn(CC4(F)CCNCC4)c4cc(F)ccc34)c21 (single isomer, unassigned) [Example 79] |  |  |

Reference: patent US20240239794A1, “PKC-Theta Modulators” (Exscientia AI Limited, priority 2021, published 2024)
